In US12692302B2, “Uses of IL-13 antagonists for treating atopic dermatitis” (Genentech, Inc., priority 2016, dated 2026):

Tested on: patients with persistent moderate to severe atopic dermatitis inadequately controlled by TCS
Assay: Clinical Study I (phase II, lebrikizumab + TCS vs placebo + TCS): efficacy outcomes
Type: in vivo, human
Details: for Change from baseline Pruritus VAS, mean % change / Change from baseline Pruritus VAS, placebo-corrected differences / Change from baseline in EASI, mean % change / Change from baseline in EASI, placebo-corrected differences / Patients maintaining EASI-50 response at Weeks 12 and 20, % / Patients maintaining EASI-50 response at Weeks 12 and 20, placebo-corrected differences / Patients maintaining EASI-75 response at Weeks 12 and 20, % / Patients maintaining EASI-75 response at Weeks 12 and 20, placebo-corrected differences / Patients maintaining IGA 0/1 response at Weeks 12 and 20, % / Patients maintaining IGA 0/1 response at Weeks 12 and 20, placebo-corrected differences / Patients maintaining SCORAD-50 response at Weeks 12 and 20, % / Patients maintaining SCORAD-50 response at Weeks 12 and 20, placebo-corrected differences: Week 20
Procedure: Clinical Study I was a phase II, randomized, double-blind, placebo-controlled study to evaluate the safety and efficacy of lebrikizumab in patients (age 18-75) with persistent moderate to severe atopic dermatitis that is inadequately controlled by topical corticosteroids (TCS). In this Study, lebrikizumab was tested in combination with TCS.
The inclusion criteria included the following: age 18 to 75 years; AD diagnosed by the Hanifin/Rajka criteria and that had been present for at least 1 year at screening; moderate to severe AD as graded by the Rajka/Langeland criteria at screening; history of inadequate response to a 1 month (within the 3 months prior to the screening visit) treatment regimen of at least daily TCS and regular emollient for treatment of AD; EASI score 14 at screening and end of the run-in period (Visit 3), IGA score 3 (5-point scale) at screening and end of the run-in period (Visit 3); AD involvement of 10% body surface area (BSA) at screening; and Pruritus VAS score (measured as part of the SCORAD) of 3 at screening.
Run-in Period. Following the screening visit, eligible patients entered a 2-week run-in period (Days −14 to −1) during which a protocol-specified topical therapy regimen was initiated. On the first day of the run-in period (Day −14) patients received TCS for use throughout the run-in period. Patients were required to apply the following topical therapy regimen daily: emollient to all xerotic skin surfaces, at least once daily; TCS cream consisting of medium potency TCS (triamcinolone acetonide 0.1%), two times per day, only to all active skin lesions.
Treatment Period. […] The plan was to randomize approximately 200 patients (1:1:1:1) to one of the following four treatment groups (see FIG. 1): (1) Group 1: lebrikizumab 250 mg administered subcutaneously (SC) single dose (Day 1) followed by 2 placebo doses (at Week 4 and at Week 8) for a total of 3 doses+TCS cream; (2) Group 2: lebrikizumab 125 mg SC single dose (Day 1) followed by 2 placebo doses (Week 4 and Week 8) for a total of 3 doses+TCS cream; (3) Group 3: lebrikizumab 125 mg SC every 4 weeks (Q4W) for a total of 3 doses+TCS cream; and (4) Group 4: placebo SC Q4W for a total of 3 doses+TCS cream. Three active doses were included to characterize both exposure-response relationships and dosing frequency requirements.
Patients randomized to these four study treatment groups received study drug (lebrikizumab or placebo SC) in combination with TCS. Throughout the 12-week treatment period these patients continued to apply emollient at least once daily and triamcinolone acetonide 0.1% cream as described in the run-in period (two times per day to all active skin lesions on the body). […] Patients recorded their use of topical creams and responded to PRO-related questions using a hand held eDiary throughout the treatment period. At each study visit the patient was required to bring their TCS containers to the study site to be weighed.
Efficacy Outcome Measures. The primary efficacy outcome measure was the percentage of patients achieving EASI-50 (a 50% reduction in EASI score from baseline) at Week 12. […]

[1] = 125 mg Q4W + TCS BID (n = 51), Week 12
[2] = 125 mg Q4W + TCS BID (n = 51), Week 12, listed as Lebri
[3] = 125 mg once every four weeks + TCS, Week 12, post hoc analysis
[4] = 125 mg single dose + TCS BID (n = 52), Week 12

## lebrikizumab: monoclonal humanized anti-IL-13 IgG4 antibody; heavy chain SEQ ID NO: 11, light chain SEQ ID NO: 12; formulated at 125 mg/mL in prefilled syringe
[1]
  % Patients achieving EASI-50: 82.4%
  % Patients achieving EASI-50, placebo-corrected changes: 20.1%
  % Patients achieving EASI-75: 54.9%
  % Patients achieving EASI-75, placebo-corrected changes: 20.9%
  % Patients achieving IGA 0/1: (33.3) %
  % Patients achieving IGA 0/1, placebo-corrected change: 14.5%
  % Patients achieving SCORAD-50: 51.0%
  % Patients achieving SCORAD-50, placebo-corrected change: 24.6%
  % Patients achieving SCORAD-75: (21.6) %
  % change from baseline in AD Specific health-related QoL - ADIQ, mean: −54.3%
  % change from baseline in ADIQ, placebo-corrected change: −25.3%
  % change from baseline in Pruritus VAS (from SCORAD), mean: −40.71%
  % change from baseline in Pruritus VAS (from SCORAD), placebo-corrected change: −13.7%
  % change from baseline in Sleep Loss VAS (from SCORAD), mean: −53.6%
  % change from baseline in Sleep Loss VAS (from SCORAD), placebo-corrected change: −31.0%
  DLQI, % change from baseline, adjusted mean: −43.12%
  DLQI, % change from baseline, Δ vs placebo: −9.55%
  SCORAD score % change from baseline, adjusted mean: −53.5%
  SCORAD score % change from baseline, Δ vs placebo: −18.0%
  Total % BSA affected, % change from baseline, adjusted mean: −57.7%
  Total % BSA affected, % change from baseline, Δ vs placebo: −10.3%
[2]
  % Patients achieving EASI-50: (82.4) %
  % Patients achieving EASI-75: (54.9) %
  % Patients achieving SCORAD-50: (51.0) %
125 mg Q4W + TCS, Week 12
  reduction in BSA affected: 57.7%
125 mg Q4W + TCS
  Change from baseline Pruritus VAS, mean % change: −35.23%
  Change from baseline Pruritus VAS, placebo-corrected differences: −13.76%
  Change from baseline in EASI, mean % change: −71.1%
  Change from baseline in EASI, placebo-corrected differences: −17.08%
  Patients maintaining EASI-50 response at Weeks 12 and 20, %: (90.5) %
  Patients maintaining EASI-50 response at Weeks 12 and 20, placebo-corrected differences: 17.75%
  Patients maintaining EASI-75 response at Weeks 12 and 20, %: (75.0) %
  Patients maintaining EASI-75 response at Weeks 12 and 20, placebo-corrected differences: 8.33%
  Patients maintaining IGA 0/1 response at Weeks 12 and 20, %: (70.6) %
  Patients maintaining IGA 0/1 response at Weeks 12 and 20, placebo-corrected differences: 10.59%
  Patients maintaining SCORAD-50 response at Weeks 12 and 20, %: (50.0) %
  Patients maintaining SCORAD-50 response at Weeks 12 and 20, placebo-corrected differences: −28.60%
125 mg SD + TCS
  Change from baseline Pruritus VAS, mean % change: −27.59%
  Change from baseline Pruritus VAS, placebo-corrected differences: −6.13%
  Change from baseline in EASI, mean % change: −62.1%
  Change from baseline in EASI, placebo-corrected differences: −8.08%
  Patients maintaining EASI-50 response at Weeks 12 and 20, %: (80.6) %
  Patients maintaining EASI-50 response at Weeks 12 and 20, placebo-corrected differences: 7.83%
  Patients maintaining EASI-75 response at Weeks 12 and 20, %: (45.0) %
  Patients maintaining EASI-75 response at Weeks 12 and 20, placebo-corrected differences: −21.70%
  Patients maintaining IGA 0/1 response at Weeks 12 and 20, %: (54.5) %
  Patients maintaining IGA 0/1 response at Weeks 12 and 20, placebo-corrected differences: −5.45%
  Patients maintaining SCORAD-50 response at Weeks 12 and 20, %: (61.1) %
  Patients maintaining SCORAD-50 response at Weeks 12 and 20, placebo-corrected differences: −17.50%
[3]
  ADIQ reduction from screening: 64.7%
  Pruritus VAS reduction from screening: 55.2%
  Sleep Loss VAS reduction from screening: 61.5%
125 mg once every four weeks for 12 weeks + TCS, P=0.025
  placebo corrected change in EASI (difference between lebrikizumab treatment and placebo): 17.4%
125 mg once every four weeks for 12 weeks + TCS, modified intention-to-treat population
  % change (decrease) from baseline in EASI: 70.5%
[4]
  % Patients achieving EASI-50: (69.2) %
  % Patients achieving EASI-50, placebo-corrected changes: 7.0%
  % Patients achieving EASI-75: (38.5) %
  % Patients achieving EASI-75, placebo-corrected changes: 4.5%
  % Patients achieving IGA 0/1: (21.2) %
  % Patients achieving IGA 0/1, placebo-corrected change: 2.3%
  % Patients achieving SCORAD-50: (34.6) %
  % Patients achieving SCORAD-50, placebo-corrected change: 8.2%
  % Patients achieving SCORAD-75: (13.5) %
  % change from baseline in AD Specific health-related QoL - ADIQ, mean: −33.9%
